# Measurements from article PMC10216478, “Development of a Non-Peptide Angiotensin II Type 1 Receptor Ligand by Structural Modification of Olmesartan as a Biased Agonist” (Biomedicines, 2023).
# Target: T1, AT1 Q257A receptor (Rattus norvegicus, UniProt P25095, Q257A)
# T1 construct: expressed in transfected cells; host or cells: COS7
# T1 sequence (P25095 1-359 Q257A): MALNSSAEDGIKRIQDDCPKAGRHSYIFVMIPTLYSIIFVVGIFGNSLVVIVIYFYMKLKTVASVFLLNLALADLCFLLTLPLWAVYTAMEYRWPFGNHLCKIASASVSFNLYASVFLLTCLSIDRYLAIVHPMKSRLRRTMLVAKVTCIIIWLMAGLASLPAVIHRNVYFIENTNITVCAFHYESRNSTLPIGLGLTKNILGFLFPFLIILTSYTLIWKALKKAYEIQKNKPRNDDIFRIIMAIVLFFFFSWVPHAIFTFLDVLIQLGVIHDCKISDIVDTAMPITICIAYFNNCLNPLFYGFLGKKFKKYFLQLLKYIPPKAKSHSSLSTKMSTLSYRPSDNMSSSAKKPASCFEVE
# Test: Competition binding study, 125I-[Sar1,Ile8]Ang II, AT1 Q257A receptor
# Conditions: competition with 125I-[Sar1,Ile8]Ang II, n = 3, mean ± standard error, read-out: Binding affinity (Kd)
# Excerpt: We mutated four amino acids in transmembrane (TM) III, VI, and VII in the AT1 receptor (L112A, Q257A, Y292A, and N295A receptors). We determined the mutation sites of the AT1 receptor according to ARB, which produced olmesartan derivatives with different interactions and functions toward the AT1 receptor, as previously reported by Zhang et al., since the additional 4-hydroxybenzyl groups of R781253 and R794847 were predicted to extend to a sub-pocket on the bottom of the AT1 receptor ligand-binding pocket consisting of Leu^112 and Gln^257. In addition, since the biased ligand TRV027 induced changes near the NPxxY motif in TM domain 7 that are related to receptor activation, Tyr^292 and Asn^295 in the AT1 receptor were mutated.
# The synthetic rat AT1 receptor gene, which was cloned in the shuttle expression vector pMT-2, was used for expression and mutagenesis, as described previously. COS7 cells (No. CRL-1651, ATCC, Manassas, VA, USA) were cultured in 10% fetal bovine serum (FBS) and penicillin- and streptomycin-supplemented Dulbecco’s modified Eagle’s essential medium (PS-DMEM) in 5% CO2 at 37 °C. In the experiments, cells were grown without a cell-growth supplement. To express the AT1 receptor protein, 10 µg of purified plasmid DNA per 10^7 cells was used in the transfection. Wild-type and mutated AT1 receptors were transiently transfected into cells using Lipofectamine 2000 liposomal reagent (Roche Applied Science, Penzberg, Germany). Cells were plated and grown and were 70–90% confluent at the time of transfection. We incubated plasmid DNA (10 µg)–lipid (10 µL) complexes for 5 min at room temperature and added and incubated the complexes with cells for 24 h. We then analyzed the parameters in transfected cells. Cell viability was >95% according to trypan blue exclusion analysis in the control experiments. Transfected cells that had been cultured for 48–72 h were harvested. Cell membranes were prepared using the nitrogen Parr bomb disruption or freeze–thaw methods.
# The Kd (nM) values of receptor binding were determined with ^125I-[Sar^1, Ile^8]AngII-binding experiments under equilibrium conditions. Binding kinetics were determined following the methods described in the literature. We carried out binding by using ^125I-[Sar^1, Ile^8] AngII (2200 Ci/mmol) and an increasing concentration (10^−11–10^−5 M) of each unlabeled compound. Nonspecific binding of ^125I-[Sar^1, Ile^8] Ang II was determined in the presence of a high concentration (10^−6 M) of unlabeled [Sar^1, Ile^8]. Next, the incubation mixture was separated by vacuum filtration through Whatman GF/C glass filters (Disposable Filter Funnels Grade GF/C, GE Healthcare), and presoaked with 0.1% polyethylenimine. The filter was washed with 3 mL of ice-cold stop buffer (25 mM Tris–HCl, pH 7.4, 1 mM MgCl2). The radioactivity trapped on the filters was quantified using an automatic γ-counter. The percentage (%) of specific binding of ^125I-[Sar^1, Ile^8]Ang II was calculated using the following formula: 100 × (% total binding of ^125I-[Sar^1, Ile^8]Ang II—nonspecific binding of ^125I-[Sar^1, Ile^8]Ang II)/(% total binding of ^125I-[Sar^1, Ile^8]Ang II).
row,Kd [nM],SMILES
1,228 ± 38,"CCCc1nc(C(C)(C)O)c(C(=O)O)n1Cc1ccc(-c2ccccc2-c2nnn[nH]2)cc1 [Olmesartan, olmesartan]"
2,20 ± 2,CCCc1nc(C(C)(C)O)c(C(N)=O)n1Cc1ccc(-c2ccccc2-c2nnn[nH]2)cc1 [R239470]
3,14 ± 6,CCCc1nc(C(C)(C)O)c(C(=O)O)n1Cc1ccc(-c2cc(Cc3ccc(O)cc3)ccc2-c2nnn[nH]2)cc1 [R781253]
4,2.7 ± 0.8,CCCc1nc(C(C)(C)O)c(C(N)=O)n1Cc1ccc(-c2cc(Cc3ccc(O)cc3)ccc2-c2nnn[nH]2)cc1 [R794847]
